Measurements: patent US8575208B2, “Inhibitors of serine proteases” (priority 2007, dated 2013)

What follows are compounds tested against T1, HCV NS3 serine protease (UniProt Q9WMX2) (assay: HCV enzymatic assay (HCV NS3 peptide cleavage assays, apparent Ki)). Conditions: serine protease activity measured using the HCV Enzyme Assays; Assay No. 1 / Assay No. 2 not given.
T1 construct: fused on or other part: Assay 1: C-terminal hexa-histidine tag
Type: biochemical, hepatitis C virus
Method: This assay is a modification of that described by Landro, et al. (Landro J A, Raybuck S A, Luong Y C, O'Malley E T, Harbeson S L, Morgenstern K A, Rao G and Livingston D L. Biochemistry 1997, 36, 9340-9348), and uses a peptide substrate (NS5AB), based on the NS5A/NS5B cleavage site for genotype la HCV. The substrate stock solution (25 mM) was prepared in DMSO containing 0.2 M DTT and stored at −20° C. A synthetic peptide cofactor (KK4A) was used as a substitute for the central core region of NS4A. The reaction was performed in a 96-well microtiter plate format using 25 ηM to 50 ηM HCV NS3 protease domain in buffer containing 50 mM HEPES pH 7.8, 100 mM NaCl, 20% glycerol, 5 mM DTT and 25 μM KK4A. The final DMSO concentration was no greater than 2% v/v. Reactions were quenched by addition of trifluoroacetic acid (TFA) to yield a final concentration of 2.5%.
The SMSY product was separated from substrate and KK4A using a microbore separation method. The instrument used was a Agilent 1100 with a G1322A degasser, either a G1312A binary pump or a G1311A quaternary pump, a G1313A autosampler, a G1316A column thermostated chamber and a G1315A diode array detector. The column was a Phenomenex Jupiter, 5 μm C18, 300 Å, 150×2 mm, P/O 00F-4053-B0, with a flow-rate of 0.2 mL/min. The column thermostat was at 40° C. Mobile phases were HPLC grade H2O/0.1% TFA (solvent A) and HPLC grade CH3CN/0.1% TFA (solvent B). The SMSY product peak was quantitated using the data collected at […].
This assay follows the cleavage of a peptide substrate by full-length hepatitis C viral protein NS3•4A. One of three peptide substrates based on the NS5A/NS5B cleavage site for genotype 1a HCV is used to measure enzyme activity. All substrate stock solutions (25 mM) were prepared in DMSO containing 0.2M DTT and stored at −20° C. A synthetic peptide cofactor (NS4A Peptide) was used to supplement NS4A. Peptide sequences are shown below. The hydrolysis reaction was performed in a 96-well microtiter plate format using 100 ηM to 125 ηM HCV NS3•4A in buffer containing 50 mM HEPES pH 7.8, 100 mM NaCl, 20% glycerol, 5 mM DTT and 25 μM NS4A Peptide. The final DMSO concentration was no greater than 2% v/v. Reactions using NS5AB or NS5AB-EDANS as substrate were quenched by the addition of 10% trifluoroacetic acid (TFA) to yield a final TFA concentration of 2.5%. Reactions using FITC-NS5AB-1 as substrate were quenched by the addition of 0.4M formic acid to yield a final concentration of 0.08M acid.
Enzymatic activity was assessed by separation of substrate and products by reverse phase HPLC. The instrument used was a Agilent 1100 with a G1322A degasser, either a G1312A binary pump or a G1311A quaternary pump, a G1313A autosampler, a G1316A column thermostated chamber, a G1321A fluorescence detector and a G1315A diode array detector. The column thermostat was at 40° C. For substrate NS5AB the column was a Phenomenex Jupiter, 5 μm C18, 300 Å, 150×2 mm, P/O 00F-4053-B0, with a flow-rate of 0.2 mL/min using HPLC grade H2O/0.1% TFA (solvent A) and HPLC grade CH3CN/0.1% TFA (solvent B) as mobile phases. The C-terminal product peak (NH2-SMSY-COOH) was quantitated using the absorbance data collected at 210 ηm. For substrate NS5AB-EDANS the column was a Phenomenex Aqua, 5 μm C18, 125 Å, 50×4.6 mm, P/O 00B-4299-E0, with a flow-rate of 1.0 mL/min using HPLC grade H2O/0.1% TFA (solvent A) and HPLC grade CH3CN/0.1% TFA (solvent B) as mobile phases. The C-terminal product peak (NH2-SMSYT-Asp(EDANS)-KKK-COOH) was quantitated using the fluorescence data collected at 350 ηm excitation/490 ηm emission. For substrate FITC-NS5AB-1 the column was a Phenomenex Prodigy, 5 μm ODS(2), 125 Å, 50×4.6 mm, P/O 00B-3300-E0, with a flow-rate of 1.0 mL/min using 10 mM sodium phosphate pH 7.0 in HPLC grade H2O (solvent A) and 65% HPLC Grade CH3CN/35% 10 mM sodium phosphate pH 7.0 in HPLC grade H2O (solvent B) as mobile phases. […]

T1 sequence (Q9WMX2 1027-1657): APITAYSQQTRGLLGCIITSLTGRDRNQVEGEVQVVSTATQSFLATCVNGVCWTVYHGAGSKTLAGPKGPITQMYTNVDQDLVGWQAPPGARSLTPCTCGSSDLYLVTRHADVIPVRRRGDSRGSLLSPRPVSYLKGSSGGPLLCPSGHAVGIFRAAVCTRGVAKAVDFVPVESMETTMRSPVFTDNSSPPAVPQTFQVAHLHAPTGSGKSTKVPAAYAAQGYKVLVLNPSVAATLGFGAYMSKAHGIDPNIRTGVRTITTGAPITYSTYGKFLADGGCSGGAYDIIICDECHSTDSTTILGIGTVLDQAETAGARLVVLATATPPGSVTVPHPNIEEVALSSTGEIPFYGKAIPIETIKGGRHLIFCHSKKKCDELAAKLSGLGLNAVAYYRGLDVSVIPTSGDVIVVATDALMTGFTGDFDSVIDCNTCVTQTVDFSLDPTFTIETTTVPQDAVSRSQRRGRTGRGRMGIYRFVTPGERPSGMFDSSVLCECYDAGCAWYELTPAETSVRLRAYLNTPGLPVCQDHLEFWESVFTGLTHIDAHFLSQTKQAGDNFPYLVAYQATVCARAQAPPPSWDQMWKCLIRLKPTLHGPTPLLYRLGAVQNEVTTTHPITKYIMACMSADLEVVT

| Compound | Ki [nM] |
| --- | --- |
| CCC[C@H](NC(=O)[C@@H]1C[C@@]2(CC(=O)N(c3ccccc3)C2)CN1C(=O)[C@@H](NC(=O)OC1CCCC1)C(C)(C)C)C(=O)C(=O)NC1CC1 [compound 1, Cyclopentyl-(S)-1-((3S,5R)-3-((S)-1-(cyclopropylamino)-1,2-dioxohexan-3-ylcarbamoyl)-8-oxo-7-phenyl-2,7-diazaspiro[4.4]nonan-2-yl)-3,3-dimethyl-1-oxobutan-2-ylcarbamate] | 410 to 700 |
| CCC[C@H](NC(=O)[C@@H]1C[C@@]2(CC(=O)N(c3cccc(Cl)c3)C2)CN1C(=O)[C@@H](NC(=O)CC1CCCCC1)C(C)(C)C)C(=O)C(=O)NC1CC1 [compound 2] | > 700 |
| CCC[C@H](NC(=O)[C@@H]1C[C@]2(CC(=O)N(c3ccccc3)C2)CN1C(=O)[C@@H](NC(=O)OC1CCCC1)C(C)(C)C)C(=O)C(=O)NC1CC1 [compound 4, cyclopentyl (S)-1-((3S,5S)-3-((S)-1-(cyclopropylamino)-1,2-dioxohexan-3-ylcarbamoyl)-8-oxo-7-phenyl-2,7-diazaspiro[4.4]nonan-2-yl)-3,3-dimethyl-1-oxobutan-2-ylcarbamate] | < 410 |
| CCC[C@H](NC(=O)[C@@H]1C[C@]2(CN(c3ccccc3)C(=O)O2)CN1C(=O)[C@@H](NC(=O)CC1CCCCC1)C(C)(C)C)C(=O)C(=O)NC1CC1 [compound 5, (5R,8S)-7-((S)-2-(2-cyclohexylacetamido)-3,3-dimethylbutanoyl)-N-((S)-1-(cyclopropylamino)-1,2-dioxohexan-3-yl)-2-oxo-3-phenyl-1-oxa-3,7-diazaspiro[4.4]nonane-8-carboxamide] | > 700 |
| CCC[C@H](NC(=O)[C@@H]1C[C@]2(CC(=O)N(c3cccc(Cl)c3)C2)CN1C(=O)[C@@H](NC(=O)CC1CCCCC1)C(C)(C)C)C(=O)C(=O)NC1CC1 [compound 6] | 410 to 700 |
| CCC[C@H](NC(=O)[C@@H]1C[C@@]2(CN(c3cccc(Cl)c3)C(=O)O2)CN1C(=O)[C@@H](NC(=O)OC1CCCC1)C(C)(C)C)C(=O)C(=O)NC1CC1 [compound 7, Cyclopentyl (S)-1-((5S,8S)-3-(3-chlorophenyl)-8-((S)-1-(cyclopropylamino)-1,2-dioxohexan-3-ylcarbamoyl)-2-oxo-1-oxa-3,7-diazaspiro[4.4]nonan-7-yl)-3,3-dimethyl-1-oxobutan-2-ylcarbamate] | < 410 |
